The text below walks through data of patent US20230183243A1, “HETEROARYL DERIVATIVES AND PHARMACEUTICAL COMPOSITION COMPRISING SAME AS ACTIVE INGREDIENT” (VORONOI INC., priority 2019, published 2023).

One test concerns MDA-MB-231 cells. The test can be described thus: Inhibition of proliferation of triple-negative breast cancer cells, CellTiter-Glo. Format: cell-based. The settings on record: Homo sapiens, 120 h; MDA-MB-231, cultured for 5 days. A digest of the protocol: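 MDA-MB-231 cells pre-cultured 24 h (5% CO2, 37 °C), then exposed to compound for 5 days at 12 three-fold dilutions, final 10 μM to 0.05 nM. Viability read by CellTiter-Glo luminescence after 10 min at 37 °C; growth inhibition calculated relative to untreated solvent-control cells.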
(In ATP-based viability assays light output follows the ATP content of the culture.)

In the next test the test system is SHP-77. The test can be described thus: Inhibition of proliferation of small cell lung cancer cells, CellTiter-Glo. Format: cell-based. The settings on record: Homo sapiens, SHP77, 120 h; SHP-77, cultured for 5 days. The protocol:
Specifically, the following test was performed to evaluate the inhibitory activity of the compound according to the present invention against the cell proliferation in the SCLC cells.
To check an inhibitory ability of cell growth in one SCLC cell line, a test was performed as follows. Cells were seeded in 180 μL of a culture broth at a density of 2,000 to 3,000 cells/well in a white clear bottom 96-well plate (Corning) according to the growth ability of each cell, and then cultured for 24 hours under conditions of 5% CO2 and 37° C. Thereafter, the compound was prepared by diluting a 10 mM stock solution three-fold with 100% DMSO at a total of 12 concentrations so that a peak concentration of the compound was in a range of 10 mM to 0.05 μM, and the diluted compound was then diluted in each cell culture medium so that a final concentration of the compound was in a range of 100 μM to 0.5 nM. 20 μL of a diluted solution diluted with a medium was added to the cell solution in which cells were seeded in the 96-well plate on the previous day so that a final concentration of the diluted solution was in a range of 10 μM to 0.05 nM. Each of the cells was cultured for 5 days. To check cell viability, a mixture provided in aCellTiter-Glo® Luminescent Cell Viability Assay Kit (Promega) was added to each of the cultured cell media, and cultured for another 10 minutes under a condition of 37° C. Then, a degree of luminescence (fluorescence) was measured. A degree of inhibition of the cell growth according to the treatment concentration of each of the compounds was calculated based on the fluorescence of the solvent control cells which were not treated with the compound. In this case, the concentration of each of the compounds inhibiting 50% of the cell growth was determined to be a GI50 (nM) value, and calculated using Prism (Version 7.01; GraphPad) software.

The target of a further test is T1, TTK (Homo sapiens, UniProt P33981).
T1 sequence (P33981 1-857): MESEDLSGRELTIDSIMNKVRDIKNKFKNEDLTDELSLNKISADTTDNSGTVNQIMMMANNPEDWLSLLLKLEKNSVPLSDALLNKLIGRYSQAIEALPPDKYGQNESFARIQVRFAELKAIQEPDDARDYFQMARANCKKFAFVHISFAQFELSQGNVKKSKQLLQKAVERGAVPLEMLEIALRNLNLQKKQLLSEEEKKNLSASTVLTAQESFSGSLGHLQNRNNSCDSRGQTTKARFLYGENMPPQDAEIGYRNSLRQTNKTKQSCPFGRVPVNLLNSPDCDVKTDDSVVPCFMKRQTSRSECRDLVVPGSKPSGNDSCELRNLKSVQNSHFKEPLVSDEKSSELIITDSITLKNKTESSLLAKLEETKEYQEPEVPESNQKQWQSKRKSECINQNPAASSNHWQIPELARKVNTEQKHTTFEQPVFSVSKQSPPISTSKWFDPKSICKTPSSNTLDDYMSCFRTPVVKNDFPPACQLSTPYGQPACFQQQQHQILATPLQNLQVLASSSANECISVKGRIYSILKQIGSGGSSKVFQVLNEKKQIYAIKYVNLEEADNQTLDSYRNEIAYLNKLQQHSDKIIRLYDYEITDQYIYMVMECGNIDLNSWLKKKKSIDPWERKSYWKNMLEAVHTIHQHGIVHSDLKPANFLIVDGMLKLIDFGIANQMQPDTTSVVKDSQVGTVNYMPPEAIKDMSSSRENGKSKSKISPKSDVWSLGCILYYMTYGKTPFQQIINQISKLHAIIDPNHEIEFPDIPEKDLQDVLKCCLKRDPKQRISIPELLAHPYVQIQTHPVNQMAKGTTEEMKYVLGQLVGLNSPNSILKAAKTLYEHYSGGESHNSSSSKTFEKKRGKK
Nature of the test: TTK enzyme activity, ADP-Glo kinase assay. Format: biochemical. Further details: purchased SignalChem T20-10G. The settings on record: purified human TTK, ATP 10 μM, 25° C., 2 hours. A digest of the protocol:
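ADP-Glo read-out; percent inhibition at each compound concentration was relative to the solvent-only control. The reactions contained 25 ng enzyme, 0.2 μg substrate and 10 μM ATP in 40 mM Tris-HCl pH 7.4 with 20 mM MgCl2, 0.5 mg/mL BSA and 50 μM DTT, and ran 2 h at 25 °C.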
(In general: In ADP-Glo the light output rises with the ADP produced.)

Structures can show the parent of a compound that is named as a salt.

By GI50 is commonly meant the concentration at which growth is held to half of that of the control. Higher therefore signals lower sensitivity of the cells. As a reminder, the IC50 is the point on the concentration scale where inhibition reaches its midpoint. High values mean weaker potency in that assay, low ones greater potency in that assay. For `COc1cc(-c2ccnn2C)ccc1Nc1nc(NC2CCCC2)c2c(C#N)c[nH]c2n1` [Example 16, 4-(cyclopentylamino)-2-((2-methoxy-4-(1-methyl-1H-pyrazol-5-yl)phenyl)amino)-7H-pyrrolo[2,3-d] pyrimidine-5-carbonitrile], the GI50 in the test with MDA-MB-231 cells and with SHP-77 was less than 100 nM each time. The same compound gave an IC50 at TTK of less than 50 nM.
On to `N#Cc1c[nH]c2nc(Nc3ccc(N4CCCS4(=O)=O)c(F)c3)nc(NC3CCOCC3)c12` [Example 29], for which the GI50 with MDA-MB-231 cells and in the test with SHP-77 was 100 to 1000 nM each time. Besides, the IC50 at TTK is less than 50 nM.
In the case of `Cn1nccc1-c1ccc(Nc2nc(NC3CCCC3)c3c(C#N)c[nH]c3n2)c2c1OCCO2` [Example 38, 4-(cyclopentylamino)-2-((8-(1-methyl-1H-pyrazol-5-yl)-2,3-dihydrobenzo[b][1,4]dioxin-5-yl)amino)-7H-pyrrolo[2,3-d] pyrimidine-5-carbonitrile], the GI50 in the test on MDA-MB-231 cells and in the test on SHP-77 was less than 100 nM throughout. The IC50 on TTK was less than 50 nM.
For the compound `Cn1nccc1-c1ccc(Nc2nc(NC3CCOCC3)c3c(C#N)c[nH]c3n2)c2c1OCCO2` [Example 40, 2-((8-(1-methyl-1H-pyrazol-5-yl)-2,3-dihydrobenzo[b][1,4]dioxin-5-yl)amino)-4-((tetrahydro-2H-pyran-4-yl)amino)-7H-pyrrolo[2,3-d] pyrimidine-5-carbonitrile], the concentration for 50% growth inhibition (GI50) with MDA-MB-231 cells and in the test on SHP-77 was less than 100 nM throughout. The compound also returned an IC50 on TTK of less than 50 nM.
With `COCCNc1nc(Nc2ccc(-c3ccnn3C)c3c2OCCO3)nc2[nH]cc(C#N)c12` [Example 49, 4-((2-methoxyethyl)amino)-2-((8-(1-methyl-1H-pyrazol-5-yl)-2,3-dihydrobenzo[b][1,4]dioxin-5-yl)amino)-7H-pyrrolo[2,3-d] pyrimidine-5-carbonitrile], the GI50 in the test on MDA-MB-231 cells and in the test with SHP-77 was less than 100 nM in each case. The IC50 on TTK was less than 50 nM.
For the compound `Cn1nccc1-c1ccc(Nc2nc(NCC3CCCC3)c3c(C#N)c[nH]c3n2)c2c1OCCO2` [Example 50, 4-((cyclopentylmethyl)amino)-2-((8-(1-methyl-1H-pyrazol-5-yl)-2,3-dihydrobenzo[b][1,4]dioxin-5-yl)amino)-7H-pyrrolo[2,3-d] pyrimidine-5-carbonitrile hydrochloride], the GI50 in the test with MDA-MB-231 cells and in the test on SHP-77 was less than 100 nM in each case. This compound showed an IC50 at TTK of 50 to 200 nM.
Turning to `N#Cc1c[nH]c2nc(Nc3ccc(N4CCCCS4(=O)=O)c(F)c3)nc(NC3CCCC3)c12` [Example 57, 4-(cyclopentylamino)-2-((4-(1,1-dioxido-l,2-thiazinan-2-yl)-3-fluorophenyl)amino)-7H-pyrrolo[2,3-d] pyrimidine-5-carbonitrile], the results for the GI50 with MDA-MB-231 cells and in the test with SHP-77 were 100 to 1000 nM and less than 100 nM, respectively. Besides, the IC50 on TTK fell in the range of 50 to 200 nM.
On the same counts, the results for `N#Cc1c[nH]c2nc(Nc3ccc(N4CCCCS4(=O)=O)c(F)c3)nc(NC3CCOCC3)c12` [Example 58, 2-((4-(1,1-dioxido-1,2-thiazinan-2-yl)-3-fluorophenyl)amino)-4-((tetrahydro-2H-pyran-4-yl)amino)-7H-pyrrolo[2,3-d] pyrimidine-5-carbonitrile] are less than 100 nM, less than 100 nM and less than 50 nM.
The like results for `Cn1nccc1-c1ccc(Nc2nc(NC3CCCCCC3)c3c(C#N)c[nH]c3n2)c2c1OCCO2` [Example 59, 4-(cycloheptylamino)-2-((8-(1-methyl-1H-pyrazol-5-yl)-2,3-dihydrobenzo[b][1,4]dioxin-5-yl)amino)-7H-pyrrolo[2,3-d] pyrimidine-5-carbonitrile] were, in that order, less than 100 nM, less than 100 nM and 200 to 1000 nM.
On the same counts, the results for `Cn1nccc1-c1ccc(Nc2nc(NCC(C)(C)C)c3c(C#N)c[nH]c3n2)c2c1OCCO2` [Example 60, 2-((8-(1-methyl-1H-pyrazol-5-yl)-2,3-dihydrobenzo[b][1,4]dioxin-5-yl)amino)-4-(neopentylamino)-7H-pyrrolo[2,3-d] pyrimidine-5-carbonitrile] are less than 100 nM, less than 100 nM and 50 to 200 nM.
Consider `Cn1nccc1-c1ccc(Nc2nc(NC3C[C@H]4CC[C@@H]3C4)c3c(C#N)c[nH]c3n2)c2c1OCCO2` (stereo partly drawn) [Example 61, 4-(((1R,4S)-bicyclo[2.2.l]heptan-2-yl)amino)-2-((8-(1-methyl-1H-pyrazol-5-yl)-2,3-dihydrobenzo[b][1,4]dioxin-5-yl)amino)-7H-pyrrolo[2,3-d] pyrimidine-5-carbonitrile], for which the GI50 in the test with MDA-MB-231 cells and in the test with SHP-77 was less than 100 nM in each case. Further, at TTK, the IC50 lay in the range of 50 to 200 nM.
Regarding `CC(C)S(=O)(=O)CCNc1nc(Nc2ccc(-c3ccnn3C)c3c2OCCO3)nc2[nH]cc(C#N)c12` [Example 83, 4-((2-(isopropylsulfonyl)ethyl)amino)-2-((8-(1-methyl-1H-pyrazol-5-yl)-2,3-dihydrobenzo[b][1,4]dioxin-5-yl)amino)-7H-pyrrolo[2,3-d] pyrimidine-5-carbonitrile 2,2,2-trifluoroacetate], the GI50 in the test on MDA-MB-231 cells and with SHP-77 was 100 to 1000 nM in each case. The compound further registered an IC50 at TTK of less than 50 nM.
In the case of `Cn1nccc1-c1ccc(Nc2nc(NCCS(C)(=O)=O)c3c(C#N)c[nH]c3n2)c2c1OCCO2` [Example 84, 2-((8-(1-methyl-1H-pyrazol-5-yl)-2,3-dihydrobenzo[b][1,4]dioxin-5-yl)amino)-4-((2-(methylsulfonyl)ethyl)amino)-7H-pyrrolo[2,3-d] pyrimidine-5-carbonitrile], the GI50 with MDA-MB-231 cells and in the test on SHP-77 was greater than 1000 nM in each case. At TTK, the IC50 was less than 50 nM.
`C[C@@H](Oc1cc(C(=O)N(C)C)ccc1Nc1nc(O[C@H]2CC[C@@](C)(O)CC2)c2c(Cl)c[nH]c2n1)C(F)(F)F` [Example 86, 4-((5-chloro-4-(((1s,4S)-4-hydroxy-4-methylcyclohexyl)oxy)-7H-pyrrolo[2,3-d]pyrimidin-2-yl)amino)-N,N-dimethyl-3-(((R)-1,1,1-trifluoropropan-2-yl)oxy)benzamide] displayed a GI50 with MDA-MB-231 cells of less than 100 nM. The compound further gave an IC50 on TTK of less than 50 nM.
`Cn1nccc1-c1ccc(Nc2nc(NC3COC3)c3c(C#N)c[nH]c3n2)c2c1OCCO2` [Example 160, 2-((8-(1-methyl-1H-pyrazol-5-yl)-2,3-dihydrobenzo[b][1,4]dioxin-5-yl)amino)-4-(oxetan-3-ylamino)-7H-pyrrolo[2,3-d] pyrimidine-5-carbonitrile]: the GI50 in the test with MDA-MB-231 cells and with SHP-77 was greater than 1000 nM throughout.
For the compound `COc1cc(-c2ccnn2C)ccc1Nc1nc(NC2COC2)c2c(C#N)c[nH]c2n1` [Example 161, 2-((2-methoxy-4-(1-methyl-1H-pyrazol-5-yl)phenyl)amino)-4-(oxetan-3-ylamino)-7H-pyrrolo[2,3-d] pyrimidine-5-carbonitrile], the concentration for 50% growth inhibition (GI50) in the test with MDA-MB-231 cells and with SHP-77 was greater than 1000 nM each time.
